Test system: A549
Assay: Cytotoxicity against human A549 cells by SRB assay
Format: functional, cell-based

SMILES: C/C=C1/CN2CC[C@]34C(=C(C(=O)OC)[C@H]1C[C@H]23)Nc1ccccc14 [AKUAMMICINE]
- IC50: 15 µM

SMILES: COC(=O)C1=C2Nc3c(OC)cccc3[C@@]23CCN2C[C@@H]([C@H](C)O)[C@@H]1C[C@H]23
- IC50: 11.5 µM

From ChEMBL document CHEMBL1157217, “Terpenoid indole alkaloids from Winchia calophylla” (J Nat Prod, 2006)
